{"source": "patent US20230391868A1", "about": "“COMPOSITIONS FOR AND METHODS OF TREATING CANCER” (The George Washington University, priority 2022, published 2023)", "key": {"[1]": {"tested_on": "SIRPα", "assay": "SIRPα gene expression in THP1-derived macrophages by qRT-PCR", "type": "cell-based, human", "details": "qRT-PCR (FIG. 2A)", "method": "(§1) Macrophages were polarized to M1-like phenotype using 50 ng/mL of interferon gamma (IFNγ, 575306, Biolegend) and 100 ng/mL of bacterial lipopolysaccharide (LPS, L2880, Sigma Aldrich, St. Louis, MO) for 24 hours. To polarize macrophages towards the M2-like phenotype, macrophages were stimulated with 20 ng/mL of IL-4 (214-14, PeproTech) and 20 ng/mL of IL-13 (575904, Biolegend). THP1 monocytes were treated with 5 ng/mL of phorbol 12-myristate 13-acetate (PMA) to induce differentiation into macrophages. Once converted to macrophages, media was replaced to remove PMA prior to treatment and/or polarization. Polarization towards M1 and M2 phenotypes was performed with respective recombinant human cytokines from PeproTech: 50 ng/mL of IFNγ (300-02), 20 ng/mL IL-4 (200-04), and 20 ng/mL IL-13 (200-13). 100 ng/mL LPS was also used to polarize toward the M1 phenotype. 3. In vivo Studies.\nqRT-PCR: Total RNA was extracted from cells using the Trizol reagent according to manufacturer's instructions (ThermoFisher Scientific, 15596018). […] RNA was quantified using a NanoDrop One Spectrophotometer (ThermoFisher Scientific). […] Target mRNA was quantified using MyIQ single-color real-time PCR detection system from Bio-Rad (Bio-Rad, Hercules, CA) and iQ SYBR green Supermix (Bio-Rad, 1708882). […] Quantification is expressed in arbitrary units and target mRNA levels were normalized to R-actin expression."}, "[2]": {"tested_on": "primary mouse BMDMs", "assay": "Pro-phagocytic signal gene expression in BMDMs", "type": "cell-based", "method": "Bone marrow-derived macrophages were isolated from the femurs and tibias of wild-type C57/Bl6, HDAC6 knockout (C57BL/6J-Hdac6em2Lutzy/J, 029318, Jackson Laboratory), or UBC-GFP (C57BL/6-Tg(UBC-GFP)30Scha/J, 004353, Jackson Laboratory). Isolated bone marrow cells were cultured in RPMI 1640 complete medium with 10% FBS, 1% NEAA, and 1% penicillin-streptomycin in 5% CO2 at 37° C. Medium was supplemented with murine recombinant M-CSF (20 ng/mL, 576404, Biolegend) to differentiate monocytes into macrophages. Three days after bone marrow isolation, undifferentiated and floating cells were washed with PBS and replaced with fresh RPMI media. A3.1A7 cells and BMDMs were pretreated with 5 μM of HDAC6 inhibitor NextA or vehicle prior to adding polarizing cytokines.\nqRT-PCR: Total RNA was extracted from cells using the Trizol reagent according to manufacturer's instructions (ThermoFisher Scientific, 15596018). Samples were then processed immediately or stored at −80° C. RNA was quantified using a NanoDrop One Spectrophotometer (ThermoFisher Scientific). The 260/280 ratios were routinely over 1.8. […] Target mRNA was quantified using MyIQ single-color real-time PCR detection system from Bio-Rad (Bio-Rad, Hercules, CA) and iQ SYBR green Supermix (Bio-Rad, 1708882). […] Quantification is expressed in arbitrary units and target mRNA levels were normalized to R-actin expression."}, "[3]": {"tested_on": "human THP1-derived macrophages", "assay": "Pro-phagocytic signal gene expression in THP1-derived macrophages", "type": "cell-based", "details": "human THP1-derived macrophages", "method": "as §1\n(§2) qRT-PCR: Total RNA was extracted from cells using the Trizol reagent according to manufacturer's instructions (ThermoFisher Scientific, 15596018). Samples were then processed immediately or stored at −80° C. RNA was quantified using a NanoDrop One Spectrophotometer (ThermoFisher Scientific). The 260/280 ratios were routinely over 1.8. Sample cDNA was produced using the iScript cDNA synthesis kit (Bio-Rad, 1708891). Target mRNA was quantified using MyIQ single-color real-time PCR detection system from Bio-Rad (Bio-Rad, Hercules, CA) and iQ SYBR green Supermix (Bio-Rad, 1708882). The following primers were synthesized by Invitrogen (Waltham, MA) with sequences designed by Origene (Rockville, MD): mouse R-actin (MP200232), mouse Nos2 (MP208933), mouse MRC1 (MP207800), human R-actin (HP204660), human IL-1β (HP200544), human MRC1 (HP206121), human NOS2 (HP200591), human CD209 (HP214086), mouse SIRPα (MP215450), mouse LRP1 (MP207604), human LRP1 (HP206040), mouse MFGE8 (MP208190), human MFGE8 (HP225757), mouse CD36 (MP201923), human CD36 (HP200058), and mouse CD47 (MP201932). […] Quantification is expressed in arbitrary units and target mRNA levels were normalized to R-actin expression."}, "[4]": {"tested_on": "SM1 melanoma cells", "assay": "Cd47 mRNA upon IFNγ stimulation in SM1 cells", "type": "cell-based, mouse", "details": "IFNγ for 12 hours", "method": "as §2, with “(MP201932). Primers for mouse ARG-1 (PPM31770C) and human SIRPα (QT01031051) were purchased from Qiagen (Hilden, Germany).” for “(MP201932).”\n(§3) Although the mechanism by which IFNγ drives CD47 upregulation is unclear, IFNγ expression correlates to CD47 expression in skin cutaneous melanoma (Ye Z H, et al. (2021) Transl. Oncol. 14:101162). The kinetics of Cd47 mRNA in SM1 and B16 cells upon IFNγ stimulation (100 ng/mL) were evaluated and these mouse melanoma models were determined to have different kinetics (FIG. 9A-FIG. 9B). It was determined that 12 hours was a time point for both models to sustain the IFNγ-mediated upregulation. In FIG. 9B, the role of HDAC6 inhibitors NextA and Tubastatin A in abrogating Cd47 upregulation upon stimulation with IFNγ for 12 hours was evaluated."}, "[5]": {"tested_on": "B16 melanoma cells", "assay": "Cd47 mRNA upon IFNγ stimulation in B16 cells", "type": "cell-based, mouse", "details": "IFNγ for 12 hours", "method": "as §2, with “(MP201932). Primers for mouse ARG-1 (PPM31770C) and human SIRPα (QT01031051) were purchased from Qiagen (Hilden, Germany).” for “(MP201932).”\nas §3"}, "[6]": {"tested_on": "WM1361A melanoma cells", "assay": "CD47 gene expression upon IFNγ in WM1361A cells", "type": "cell-based, human", "details": "NextA 2.5 μM, 5 μM, and 10 μM, 12 hr post-stimulation (FIG. 3K)", "method": "(§4) qRT-PCR: Total RNA was extracted from cells using the Trizol reagent according to manufacturer's instructions (ThermoFisher Scientific, 15596018). Samples were then processed immediately or stored at −80° C. RNA was quantified using a NanoDrop One Spectrophotometer (ThermoFisher Scientific). The 260/280 ratios were routinely over 1.8. Sample cDNA was produced using the iScript cDNA synthesis kit (Bio-Rad, 1708891). Target mRNA was quantified using MyIQ single-color real-time PCR detection system from Bio-Rad (Bio-Rad, Hercules, CA) and iQ SYBR green Supermix (Bio-Rad, 1708882). […] Quantification is expressed in arbitrary units and target mRNA levels were normalized to R-actin expression.\n(§5) This phenomenon was further examined in human melanoma cell lines to test the translational application of the results obtained using mouse models. […] Furthermore, the effects of HDAC6 KD on IFNγ-driven CD47 upregulation was analyzed. […] The effects of pharmacological inhibition of HDAC6 in other human melanoma cell lines (WM1361A and WM793) were also assessed. […]"}, "[7]": {"tested_on": "WM793 human melanoma cells", "assay": "CD47 gene expression upon IFNγ in WM793 cells", "type": "cell-based", "details": "5 μM NextA (FIG. 3L)", "method": "as §4, §5"}, "[8]": {"tested_on": "WM164 melanoma cells", "assay": "Flow cytometry-based phagocytosis assay, THP1-derived macrophages with WM164 cells", "type": "cell-based, human", "details": "co-culture with WM164 melanoma cells (FIG. 4J)"}, "[9]": {"tested_on": "SIRPα", "assay": "SIRPα expression on NK cells", "type": "cell-based"}}}
{"smiles": "CCCCN(Cc1ccc(C(=O)NO)cc1)C(=O)Nc1ccccc1", "note": "[NextA, Nexturastat A]", "values": [{"measurement": "SIRPα expression at the transcriptional level", "setting": "[1]", "value": "significantly downregulated"}, {"measurement": "expression of Lrp1, Cd36, and Mfge8", "setting": "[2]", "value": "significant increase"}, {"measurement": "expression of Lrp1, Cd36, and Mfge8", "setting": "[3]", "value": "significant increase"}, {"measurement": "IFNγ-driven Cd47 upregulation at the transcriptional level", "setting": "[4]", "value": "repressed these effects"}, {"measurement": "IFNγ-driven Cd47 upregulation at the transcriptional level", "setting": "[5]", "value": "repressed these effects"}, {"measurement": "IFNγ-driven CD47 upregulation", "setting": "[6]", "value": "prevented"}, {"measurement": "IFNγ-driven CD47 upregulation", "setting": "[7]", "value": "corroborated"}, {"measurement": "phagocytosis by unpolarized THP-1 derived macrophages", "setting": "[8]", "value": "significantly more phagocytic"}, {"measurement": "SIRPα expression on NK cells", "setting": "[9]", "value": "downregulated"}]}
